Results published in US9586999B2, “Methods and compositions related to improving properties of pharmacological agents targeting nervous system” (University of Utah Research Foundation, priority 2006, dated 2017).
“Also recorded” adds a separate entry of the source.

Columns and labels:
corneal kindling = assay: Mouse corneal kindling acquisition; type: in vivo
Experimental: CF#1 mice were randomized to receive either vehicle (0.9% saline) or NAX-5055. Mice in the NAX-5055 group received two doses of NAX-5055 twelve (12 h) and 1 h prior to their first kindling stimulation. One hour (1 h) prior to each subsequent stimulation, mice in the NAX-5055 treated group received another dose of NAX-5055 (4 mg/kg, i.p.). Mice were stimulated twice daily for 16 days. Results are expressed as the mean seizure score per stimulation. As noted above, the results for the NAX-5055 treated mice segregated into two populations; i.e., sensitive (green line) and insensitive (blue line).
Mice treated with NAX-5055 (see legend to Figure X for experimental details) segregated into two treatment groups; i.e., NAX-5055 sensitive and NAX-5055 insensitive. Results are expressed as the number of stimulations required to reach a particular seizure score+/−S.E.M.; i.e., 1 to 5. […] One Way ANOVA, p<0.0209; post hoc analysis: saline vs. NAX-5055 insensitive, p>0.05; NAX-5055 sensitive vs. NAX-5055 insensitive, p<0.05.
Daily electrical stimulation via the cornea results in a stable kindled state within 15-20 days. This is an ideal model to initially assess the ability of selected galanin analogs to prevent kindling acquisition because the amount of peptide required is much lower than what is required for a rat kindling study. Those compounds found to be effective in preventing the acquisition of kindling are subsequently evaluated in a more traditional rat kindling model; i.e., amygdala kindled rat. For the proposed studies two groups of mice (n=8 mice per group) are randomized to receive either vehicle or peptide prior to each kindling stimulation. […] At the time to peak effect (obtained from the 6 Hz study), they are stimulated via corneal electrodes with a subconvulsive current (50 Hz, 3 mA, for 3.0 sec) and observed for the presence or absence of seizure activity. Seizure activity is scored according to the criteria established by Racine et al., (1972). Animals receive two stimulations per day until they display their first Stage 5 behavioral seizure and then once daily until they display stable secondarily generalized seizures (5 consecutive Stage 4-5 seizures). Peptide treatment continues in the experimental group until the point that the control mice become fully kindled. At this point, mice in both groups are permitted a one-week stimulus and treatment-free week. On the 8th day, mice in both groups are stimulated in the absence of peptide or vehicle and their seizure score recorded.
The ability of the blood-brain-barrier penetrant galanin-based neuropeptide NAX-5055 to prevent the development of corneal kindling was studied in CF#1 mice. […] Following stimulation seizure activity was scored on a scale of 0-5 as established by Racine (1972).

mechanical allodynia = assay: Sciatic nerve ligation model of chronic pain, mechanical allodynia (Von Frey); type: in vivo, rat; settings: 2 mg/kg i.p.
Experimental: Just prior to surgery, rats are treated subcutaneously with 0.1 to 0.5 mg/kg of the long acting opiate buprenorphine. Rats are then anesthetized with pentobarbital and the depth of anesthesia monitored by their response to a tail pinch and observation of the depth of respiration. Sterile technique was used throughout the surgery.
The upper thigh of each rat was shaved and wiped off with ethanol and betadine. A small incision was made in the skin and through the underlying muscle of the upper thigh until the sciatic nerve was exposed. The nerve was then separated from the surrounding connective tissue and slightly elevated by a pair of fine, curved forceps. Approximately ⅓ to ½ of the nerve was then tied off by passing a needle and nylon suture (7.0) through the nerve. […] Rats were closely monitored daily for the development of infection or untoward effects of the surgery.
After an appropriate time for recovery (e.g., 7-14 days) the animals were tested for the development of mechanical allodynia (pain response to a non-noxious stimulus). […] After a 30-60 minute acclimation period, a baseline mechanical sensitivity was determined. […] This procedure was repeated until a 50% threshold for withdrawal could be determined.

[1] = system: tonic-extension (maximal electroshock) seizures; assay: Maximal electroshock seizure (MES) test; type: in vivo, mouse; settings: 4 mg/kg i.p., tested one hour later
From the text: Abolition of the hindleg tonic extensor component of the seizure is used as the endpoint.

6 Hz limbic seizures = assay: 6 Hz limbic (psychomotor) seizure test; type: in vivo, mouse
From the text: Mice not displaying limbic seizures were considered protected.
As mentioned above, the 6 Hz seizure becomes more resistant to block by antiepileptic drugs as the current is increased from 22 mA to 44 mA.

[2] = system: hippocampal kindled seizures; assay: Hippocampal kindled rat model of partial epilepsy; type: in vivo; settings: i.p.; decreased from 5
[3] = 4 mg/kg i.p. twice daily, NAX-5055 sensitive group

Sar-Trp-Thr-Leu-Asn-Ser-Ala-Gly-Tyr-Leu-Leu-Gly-Pro-Lys-Lys-(Lys-palm)-Lys-NH2 [NAX 5055]
kindling acquisition (corneal kindling; 4 mg/kg i.p.): can delay kindling acquisition | Stage 5 seizures (corneal kindling; [3]): none of the mice in the NAX-5055 sensitive group reached Stage 5 seizures | more stimulations to reach Stage 2 and Stage 3 seizures (corneal kindling; [3]): 35-40% | stimulations required to reach a Stage 1 seizure (corneal kindling; [3]): two times more stimulations | threshold for mechanical allodynia (mechanical allodynia; 30 min to 6 h): time-dependent increase in the threshold for mechanical allodynia | potency relative to morphine (2 mg/kg) and gabapentin (40 mg/kg) (mechanical allodynia; listed as GAL-BBB2): equi-potent to morphine; also recorded: several fold more potent that gabapentin | activity in maximal electroshock seizure test [1]: completely inactive | activity in pharmaco-resistant seizure model (6 Hz limbic seizures; 4 mg/kg): active | potency and efficacy relative to native peptide fragment (6 Hz limbic seizures; 6 Hz (32 mA), i.c.v.): more potent and efficacious than the native peptide fragment GAL(1-16) | % Protection at 2 hours afforded by a dose of 4 mg/kg, i.p. (6 Hz limbic seizures; 2 h, 4 mg/kg i.p.): 100% | % Protection at 4 hours afforded by a dose of 4 mg/kg, i.p. (6 Hz limbic seizures; 4 h, 4 mg/kg i.p.): 0% | ED50 in the 6 Hz limbic seizure model (in Table 14 in parentheses) (6 Hz limbic seizures; i.p., SAR analogs): (0.8 mg/kg) | ED50 following i.c.v. administration (6 Hz limbic seizures; intracerebroventricular, 6 Hz (32 mA)): 0.07 nmol | anticonvulsant activity following subcutaneous administration (6 Hz limbic seizures; s.c., 32 mA, 60 min, CF-1 mice): preserved; also recorded: retained | seizure score [2]: 3
